From paper PMC7582373, “Bis-Lactam Peptide [i, i+4]-Stapling with α-Methylated Thialysines” (Molecules, 2020) come the findings set out here.

*1 amine or outer side, *2 acyl side, *3 side chain or, on linkers, in order; H or OH if unused. Where a SMILES comes first, the peptide text is derived from it. Bridges are numbered along the chain shown (N, C = ends). [ ]: non-standard residue; d: D form. X1 = O=C(Cc1ccc(CC(=O)NCC[*:2])cc1)NCC[*:1]; αMeC = C[C@](N)(CS)C(=O)O

The fraction remaining is the share of the starting amount still present when the sample was taken. A lower fraction remaining goes with a greater loss.

Data set [1] can be described thus: circular dichroism. The settings on record: water; pH ns; 25 °C; 25 and/or 50 uM. (In general: CD spectra are sensitive to the conformation of chiral molecules.)
The nature of data set [2]: in vitro. Format: in vitro ADME. Conditions: Streptomyces griseus, isolated enzyme pronase, pH 7.3. The source says: We further compared the proteolytic stability of the L-α-methyl-thialysine-stapled peptide 5 and the L-thialysine-stapled peptide 6 by employing pronase as the proteolytic enzyme preparation in a proteolysis experiment. Of note, pronase is a mixture of a variety of different proteases/peptidases and therefore has a very broad substrate specificity. […] This observed difference in the proteolytic stability of 5 and 6 is in the same direction of change with the % α-helicity of 5 and 6 (see above), which would be consistent with the notion that an enhanced % α-helicity would improve the proteolytic stability of a stapled peptide, which was also supported previously with the peptides stapled with other stapling systems such as the all-hydrocarbon-stapled peptides.
The following materials were obtained from commercial sources for compound synthesis/purification and the pronase digestion assay, and were used as received. Sigma-Aldrich China (Shanghai, China): N-methylmorpholine (NMM), trifluoroacetic acid (TFA), N,N-dimethylformamide (DMF), N-(allyloxycarbonyloxy)succinimide (Alloc-OSu), triethylamine, Trizma, the pronase from Streptomyces griseus; TCI Shanghai: para-phenylenediacetic acid, 2-(tert-butoxycarbonylamino)ethyl bromide, 1,8-diazabicyclo[5.4.0]undec-7-ene (DBU), L-cysteine, N-(9-fluorenylmethoxycarbonyloxy) succinimide (Fmoc-OSu), phenylsilane (PhSiH3), tetrakis(triphenylphosphine)palladium (Pd(PPh3)4); Alfa Aesar China (Shanghai, China): 2-(1H-benzotriazole-1-yl)-1,1,3,3-tetramethylaminium hexafluorophosphate (HBTU), 2-(7-Aza-1H-benzotriazole-1-yl)-1,1,3,3-tetramethyluronium hexafluorophosphate (HATU), N-hydroxybenzotriazole (HOBt), phenol, thioanisole, ethanedithiol; Honeywell China (Shanghai, China): acetonitrile, dichloromethane (DCM), methanol, ethyl acetate; Sinopharm Chemical Reagent Co., Ltd. (Shanghai, China): acetic anhydride, diethyl ether, semi-preparative thin-layer chromatography (TLC) silica gel plate (HSGF254, 20 × 20 cm, 0.4–0.5 mm); Shanghai Plus Bio-Sci & Tech Co., Ltd. (Shanghai, China): Rink amide 4-methylbenzhydrylamine (MBHA) resin; SyncoZymes Co., Ltd. (Shanghai, China): D-2-methyl-cysteine hydrochloride; Fisher Scientific Worldwide Co., Ltd. (Shanghai, China): L-2-methyl-cysteine hydrochloride.
This experiment followed the protocol described previously. Fifty (50) µL of an 160 μM solution of a peptide (5, 6, 7, or 8) in ddH2O was thoroughly mixed with 50 μL of an 8 ng/μL solution of pronase in 100 mM Tris•HCl (pH 7.3), and the resultant solution was incubated at 37 °C until quenched at different time points (0 min, 4 min, 7.5 min, and 15 min) with an 1.0 M solution of acetic acid in ddH2O. Twenty (20) μL of a pronase digestion solution was taken at each time point and treated immediately with 40 μL of the 1.0 M acetic acid aqueous solution, followed instantly by vigorous vortexing and centrifugation. The obtained supernatant was then injected into a C18 analytical HPLC column (0.46 × 25 cm, 5 μm), and the column was eluted at 1 mL/min with ultraviolet monitoring at 214 nm with the following gradients of ddH2O containing 0.05% (v/v) TFA (mobile phase A) and acetonitrile containing 0.05% (v/v) TFA (mobile phase B): linear increase of B from 0% to 45% in 60 min (for 5 and 6), linear increase of B from 0% to 60% in 60 min (for 7), or linear increase of B from 0% to 100% in 60 min (for 8). The integrated HPLC peak areas at different time points for a given peptide were used to estimate the percentage remaining for the peptide as the function of the digestion time.

In turn, `CC[C@H](C)[C@H](NC(=O)[C@H](CCC(=O)O)NC(=O)[C@H](CO)NC(C)=O)C(=O)N[C@H](C(=O)N[C@@H](CCCCN)C(=O)N[C@@H](CCC(N)=O)C(=O)N[C@@H](CCC(=O)O)C(=O)N[C@@H](CCCCN)C(=O)N[C@@]1(C)CSCCNC(=O)Cc2ccc(cc2)CC(=O)NCCSC[C@](C)(C(=O)N[C@@H](Cc2c[nH]cn2)C(=O)N[C@@H](CCCNC(=N)N)C(=O)N[C@@H](Cc2c[nH]cn2)C(=O)N[C@@H](Cc2ccc(O)cc2)C(=O)N[C@@H](CS)C(N)=O)NC(=O)[C@H](Cc2c[nH]c3ccccc23)NC(=O)[C@H](CC(C)C)NC(=O)[C@H](Cc2ccccc2)NC1=O)[C@@H](C)O` gave a helicity in data set [1] of 11.8%.

Regarding `CC[C@H](C)[C@H](NC(=O)[C@H](CCC(=O)O)NC(=O)[C@H](CO)NC(C)=O)C(=O)N[C@H](C(=O)N[C@@H](CCCCN)C(=O)N[C@@H](CCC(N)=O)C(=O)N[C@@H](CCC(=O)O)C(=O)N[C@@H](CCCCN)C(=O)N[C@@]1(C)CSCCNC(=O)Cc2ccc(cc2)CC(=O)NCCSC[C@@](C)(C(=O)N[C@@H](Cc2c[nH]cn2)C(=O)N[C@@H](CCCNC(=N)N)C(=O)N[C@@H](Cc2c[nH]cn2)C(=O)N[C@@H](Cc2ccc(O)cc2)C(=O)N[C@@H](CS)C(N)=O)NC(=O)[C@H](Cc2c[nH]c3ccccc23)NC(=O)[C@H](CC(C)C)NC(=O)[C@H](Cc2ccccc2)NC1=O)[C@@H](C)O` [compound 5], in data set [2], the fraction remaining at 4 min, 80 µM was ~19.2% and the fraction remaining at 0.125 h, 80 µM was ~5.6%. The compound also returned a helicity in data set [1] of 10.4%.

Consider `CC(=O)N[C@@H](CCC(=O)O)C(=O)N[C@@H](Cc1c[nH]c2ccccc12)C(=O)N[C@@H](C)C(=O)N[C@@H](CCC(=O)O)C(=O)N[C@H](C(=O)N[C@@H](C)C(=O)N[C@@H](C)C(=O)N[C@H]1CSCCNC(=O)Cc2ccc(cc2)CC(=O)NCCSC[C@@H](C(=O)N[C@@H](C)C(=O)N[C@@H](Cc2c[nH]cn2)C(=O)N[C@@H](C)C(N)=O)NC(=O)[C@H](CC(C)C)NC(=O)[C@H](Cc2ccccc2)NC(=O)[C@H](CCCCN)NC1=O)[C@@H](C)O` [compound 8] (Ac-EWAETAACKFLCAHA-NH2; linker 8-12 via X1), for which, in data set [2], the fraction remaining at 4 min, 80 µM is ~48.9%; the amount remaining at 0.125 h, 80 µM was ~35.7%; the share remaining at 0.25 h, 80 µM was ~21.6%. The same compound showed a helicity in data set [1] of 7.9%.

Consider `CC[C@H](C)[C@H](NC(=O)[C@H](CCC(=O)O)NC(=O)[C@H](CO)NC(C)=O)C(=O)N[C@H](C(=O)N[C@@H](CCCCN)C(=O)N[C@@H](CCC(N)=O)C(=O)N[C@@H](CCC(=O)O)C(=O)N[C@@H](CCCCN)C(=O)N[C@]1(C)CSCCNC(=O)Cc2ccc(cc2)CC(=O)NCCSC[C@](C)(C(=O)N[C@@H](Cc2c[nH]cn2)C(=O)N[C@@H](CCCNC(=N)N)C(=O)N[C@@H](Cc2c[nH]cn2)C(=O)N[C@@H](Cc2ccc(O)cc2)C(=O)N[C@@H](CS)C(N)=O)NC(=O)[C@H](Cc2c[nH]c3ccccc23)NC(=O)[C@H](CC(C)C)NC(=O)[C@H](Cc2ccccc2)NC1=O)[C@@H](C)O`, for which, in data set [1], the helicity was found to be 10.4%.

Regarding `CC[C@H](C)[C@H](NC(=O)[C@H](CCC(=O)O)NC(=O)[C@H](CO)NC(C)=O)C(=O)N[C@H](C(=O)N[C@@H](CCCCN)C(=O)N[C@@H](CCC(N)=O)C(=O)N[C@@H](CCC(=O)O)C(=O)N[C@@H](CCCCN)C(=O)N[C@H]1CSCCNC(=O)Cc2ccc(cc2)CC(=O)NCCSC[C@@H](C(=O)N[C@@H](Cc2c[nH]cn2)C(=O)N[C@@H](CCCNC(=N)N)C(=O)N[C@@H](Cc2c[nH]cn2)C(=O)N[C@@H](Cc2ccc(O)cc2)C(=O)N[C@@H](CS)C(N)=O)NC(=O)[C@H](Cc2c[nH]c3ccccc23)NC(=O)[C@H](CC(C)C)NC(=O)[C@H](Cc2ccccc2)NC1=O)[C@@H](C)O` [compound 6] (Ac-SEITKQEKCFLWCHRHYC-NH2; linker 9-13 via X1), in data set [2], the amount remaining at 4 min, 80 µM was ~11.1% and the amount remaining at 0.125 h, 80 µM is ~4.3%. This compound had a helicity in data set [1] of 4.4%.

As for `CC[C@H](C)[C@H](NC(=O)[C@H](CCC(=O)O)NC(=O)[C@H](CO)NC(C)=O)C(=O)N[C@H](C(=O)N[C@@H](CCCCN)C(=O)N[C@@H](CCC(N)=O)C(=O)N[C@@H](CCC(=O)O)C(=O)N[C@@H](CCCCN)C(=O)N[C@]1(C)CSCCNC(=O)Cc2ccc(cc2)CC(=O)NCCSC[C@@](C)(C(=O)N[C@@H](Cc2c[nH]cn2)C(=O)N[C@@H](CCCNC(=N)N)C(=O)N[C@@H](Cc2c[nH]cn2)C(=O)N[C@@H](Cc2ccc(O)cc2)C(=O)N[C@@H](CS)C(N)=O)NC(=O)[C@H](Cc2c[nH]c3ccccc23)NC(=O)[C@H](CC(C)C)NC(=O)[C@H](Cc2ccccc2)NC1=O)[C@@H](C)O`, the helicity in data set [1] came to 11.1%.

Consider `CC(=O)N[C@@H](CCC(=O)O)C(=O)N[C@@H](Cc1c[nH]c2ccccc12)C(=O)N[C@@H](C)C(=O)N[C@@H](CCC(=O)O)C(=O)N[C@H](C(=O)N[C@@H](C)C(=O)N[C@@H](C)C(=O)N[C@@]1(C)CSCCNC(=O)Cc2ccc(cc2)CC(=O)NCCSC[C@@](C)(C(=O)N[C@@H](C)C(=O)N[C@@H](Cc2c[nH]cn2)C(=O)N[C@@H](C)C(N)=O)NC(=O)[C@H](CC(C)C)NC(=O)[C@H](Cc2ccccc2)NC(=O)[C@H](CCCCN)NC1=O)[C@@H](C)O` [compound 7] (Ac-EWAETAA[αMeC]KFL[αMeC]AHA-NH2; linker 8-12 via X1), for which, in data set [2], the fraction remaining at 4 min, 80 µM is ~96.6%; the fraction remaining at 0.125 h, 80 µM is ~93.3%; the share remaining at 0.25 h, 80 µM was ~81.3%. The helicity in data set [1] is 13.5%.
